These results are taken from US20210116467A1, “DIABETES-RELATED BIOMARKERS AND TREATMENT OF DIABETES-RELATED CONDITIONS” (priority 2015, published 2021).

The subject of the test is GLP1. Kind of test: GLP1 production induced by treatment with bile acids (immunofluorescence staining of TGR5 and GLP1 in CCL-241 cells). Format: cell-based. The settings on record: CCL-241 human small intestinal normal epithelial cells; 100 μM bile acid; compared to wild type (WT) and DMSO controls; FIG. 13. The protocol: Several bile acids were tested for their ability to increase production of GLP-1. Without being bound by theory, the inventor believes that compounds which increase the production of GLP-1 provide an anti-diabetic effect.
CCL-241, a human small intestinal normal epithelial cell were treated with 100 μM of different bile acids and compared to that of wild type (WT) and DMSO treatment as controls. The expression of TGR5 and GLP1 were detected by Immunofluorescence staining.

On to `C[C@H](CCC(=O)NCCS(=O)(=O)[O-])[C@H]1CC[C@H]2[C@@H]3C[C@H](O)[C@@H]4C[C@H](O)CC[C@]4(C)[C@H]3CC[C@]12C.[Na+]` [THDCA, Taurohyodeoxycholic acid], for which the “GLP1-promotion effect (expression of GLP1 detected by immunofluorescence staining)” value (“GLP1-promotion effect” below) is “strongest GLP1-promotion effect”.

For the compound `O=C(O)C(Cl)(Cl)Cl` [TCA], the “GLP1-promotion effect” value was “substantial GLP-1 promotion effect”.

`C[C@H](CCC(=O)O)[C@H]1CC[C@H]2[C@@H]3C[C@H](O)[C@@H]4C[C@H](O)CC[C@]4(C)[C@H]3CC[C@]12C` [HDCA, Hyodeoxycholic acid]: the “GLP1-promotion effect” value is listed as “strongest GLP1-promotion effect”.

`C[C@H](CCC(=O)O)[C@H]1CC[C@H]2[C@@H]3CC[C@@H]4C[C@H](O)CC[C@]4(C)[C@H]3C[C@H](O)[C@]12C` [DCA]: the “GLP1-promotion effect” value was “substantial GLP-1 promotion effect”.

Consider `C[C@H](CCC(=O)O)[C@H]1CC[C@H]2[C@@H]3[C@H](O)[C@H](O)[C@@H]4C[C@H](O)CC[C@]4(C)[C@H]3CC[C@]12C` [HCA, Hyocholic acid], for which the “GLP1-promotion effect” value was “strongest GLP1-promotion effect”.

`C[C@H](CCC(=O)NCC(=O)O)[C@H]1CC[C@H]2[C@@H]3C[C@H](O)[C@@H]4C[C@H](O)CC[C@]4(C)[C@H]3CC[C@]12C` [GHDCA, Glycohyodeoxycholic acid]: the “GLP1-promotion effect” value is “strongest GLP1-promotion effect”.
